Here are results for one compound from article PMC2812657 (Biochemical and biophysical research communications, 2009).

Assay [1] has as its target GSK3α (Homo sapiens, UniProt P49840). In words: in vitro kinase profiling assay.
Assay [2] deals with GSK3β (Homo sapiens, UniProt P49841). In words: in vitro kinase profiling assay. It counts as biochemical.

pIC50: −log10 of the molar value.

GSK3α, sequence (P49840 2-483): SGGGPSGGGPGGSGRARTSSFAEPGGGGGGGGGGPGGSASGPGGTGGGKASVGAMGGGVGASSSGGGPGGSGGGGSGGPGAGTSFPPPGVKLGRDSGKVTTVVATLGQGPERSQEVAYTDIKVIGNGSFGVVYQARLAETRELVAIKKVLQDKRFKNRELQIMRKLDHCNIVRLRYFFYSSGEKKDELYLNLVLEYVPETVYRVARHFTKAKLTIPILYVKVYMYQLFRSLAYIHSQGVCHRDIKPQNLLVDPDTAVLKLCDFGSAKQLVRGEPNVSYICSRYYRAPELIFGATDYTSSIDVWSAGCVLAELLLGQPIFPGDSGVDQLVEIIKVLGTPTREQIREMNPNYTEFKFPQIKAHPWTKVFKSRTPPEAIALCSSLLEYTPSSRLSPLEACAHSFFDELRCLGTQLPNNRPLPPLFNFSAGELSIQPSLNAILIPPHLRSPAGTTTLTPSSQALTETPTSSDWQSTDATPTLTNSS
GSK3β, sequence (P49841 whole entry): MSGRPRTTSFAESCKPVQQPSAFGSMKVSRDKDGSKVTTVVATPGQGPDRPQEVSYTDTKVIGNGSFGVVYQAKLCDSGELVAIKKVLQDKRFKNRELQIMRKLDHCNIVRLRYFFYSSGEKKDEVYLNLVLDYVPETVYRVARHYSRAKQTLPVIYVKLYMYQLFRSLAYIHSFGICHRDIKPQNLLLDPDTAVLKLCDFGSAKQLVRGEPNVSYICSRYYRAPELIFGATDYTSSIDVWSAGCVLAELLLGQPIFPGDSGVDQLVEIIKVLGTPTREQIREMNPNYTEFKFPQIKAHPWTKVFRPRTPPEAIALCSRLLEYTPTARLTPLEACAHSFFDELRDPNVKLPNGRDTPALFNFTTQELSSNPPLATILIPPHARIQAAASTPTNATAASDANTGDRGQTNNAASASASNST

With `Nc1cccc(-c2cc3c(Oc4cccc(O)c4)ncnc3[nH]2)c1` [TWS119], the pIC50 – broadly, −log10 of the IC50, conventionally taken in molar units – in assay [1] was 7.06; in assay [2] it was 6.39.
